Experimental data from PMC11600623 (Clinical and Translational Science, 2024).
Where two headings read alike, the source gives them in different places. Blank lines part the entries; values can stand above or below the compound they belong to.

Legend:
Assay type in all cases: in vivo, human
[1] = Population PK model of quizartinib
[2] = Influence of covariates on steady-state exposure metrics
[3] = Population PK model of AC886
[4] = newly diagnosed AML vs R/R AML reference
[5] = residual unexplained variability
[6] = final model, typical subject, f MET fixed to 0.5
[7] = newly diagnosed AML vs R/R AML and non-AML reference

- IIV D1 [1]: 82 % coefficient of variation (CV)
- IIV Q 1,quiz [1]: 69 % CV
- IIV (CV) for F rel ([1]; AML patients): 44%
- Age effect on V p1,quiz ([1]; exponential covariate model): 0.0152 1/year
- D1 (duration of zero-order input to depot compartment) ([1]; final model): 0.710 h
- Shape box-cox parameter for IIV on F rel for AML patients ([1]; final model): −1.28
- T lag (absorption lag time) ([1]; final model): 0.196 h
- k a (first-order absorption rate constant) ([1]; final model): 1.10 h⁻¹
- Fractional change in CLquiz for Black race ([1]; final model covariate effect): −0.261
- Fractional change in CLquiz with strong CYP3A inhibitors ([1]; final model covariate effect): −0.301
- Fractional change in F rel with moderate CYP3A inhibitors ([1]; final model covariate effect): 0.116
- Fractional change in F rel with strong CYP3A inhibitors ([1]; final model covariate effect): 0.273
- Fractional change in V c,quiz for females ([1]; final model covariate effect): −0.169
- Fractional change in k a for non-AML subjects ([1]; final model covariate effect): −0.188
- Q 1,quiz (apparent intercompartmental clearance 1) ([1]; final model, typical subject): 40.7 L/h
- Q 2,quiz (apparent intercompartmental clearance 2) ([1]; final model, typical subject): 0.757 L/h
- V p1,quiz (apparent peripheral volume of distribution 1) ([1]; final model, typical subject): 312 L
- V p2,quiz (apparent peripheral volume of distribution 2) ([1]; final model, typical subject): 91.9 L
- Vd ([1]; human, plasma, oral): 371 L
- clearance ([1]; human, plasma, oral): 111 mL/min
- IIV D1 ([1]; interindividual variability): 0.821 CV
- IIV F rel AML patients ([1]; interindividual variability): 0.444 CV
- IIV F rel non-AML subjects ([1]; interindividual variability): 0.256 CV
- IIV Q 1,quiz ([1]; interindividual variability): 0.691 CV
- IIV T lag ([1]; interindividual variability): 0.647 CV
- IIV V c,quiz ([1]; interindividual variability): 0.186 CV
- IIV k a ([1]; interindividual variability): 0.423 CV
- Fractional change in F rel during Consolidation [1, 4]: −0.192
- Fractional change in F rel during Continuation [1, 4]: 0.418
- Fractional change in F rel during Induction [1, 4]: −0.419
- F rel for non-AML subjects ([1]; relative to AML patients): 1.73
- Additive RUV log scale AML patients [1, 5]: 0.440 CV
- Additive RUV log scale non-AML subjects [1, 5]: 0.102 CV
- Increase of exposure ([2]; concomitant administration of strong CYP3A inhibitors): ~2 fold
- Exposure in non-AML subjects compared to AML patients ([2]; higher in non-AML subjects): approximately 1.7 fold
- Increase of steady-state area under the curve during the dosing interval (AUCss) ([2]; use of strong CYP3A inhibitors): 1.8 fold
Structure (SMILES): CC(C)(C)c1cc(NC(=O)Nc2ccc(-c3cn4c(n3)sc3cc(OCCN5CCOCC5)ccc34)cc2)no1 [quizartinib]

- IIV (CV) for CLAC886 ([3]; AML patients): 74%
- Fractional change in CLAC886 for Black race ([3]; final model covariate effect): 0.488
- Fractional change in CLAC886 for non-AML subjects ([3]; final model covariate effect): 0.843
- Fractional change in CLAC886 with strong CYP3A inhibitors ([3]; final model covariate effect): 0.298
- Fractional change in V c,AC886 with strong CYP3A inhibitors ([3]; final model covariate effect): 2.79
- Q AC886 (apparent intercompartmental clearance) ([3]; final model, typical subject): 3.76 L/h
- V p,AC886 (apparent peripheral volume of distribution) ([3]; final model, typical subject): 68.5 L
- CLAC886 (apparent CL of AC886) [3, 6]: 4.61 L/h
- V c,AC886 (apparent central volume of distribution) [3, 6]: 8.93 L
- IIV CLAC886 AML patients ([3]; interindividual variability): 0.740 CV
- IIV CLAC886 non-AML subjects ([3]; interindividual variability): 0.516 CV
- IIV V c,AC886 ([3]; interindividual variability): 1.36 CV
- Fractional change in f MET during Consolidation [3, 7]: 0.272
- Fractional change in f MET during Continuation [3, 7]: −0.249
- Fractional change in f MET during Induction [3, 7]: 0.715
- Additive RUV log scale AML patients [3, 5]: 0.452 CV
- Additive RUV log scale non-AML subjects [3, 5]: 0.312 CV
- Change of exposure compared to all other race categories ([2]; Black race, median difference): ~0.7 fold
Structure (SMILES): CC(C)(CO)c1cc(NC(=O)Nc2ccc(-c3cn4c(n3)sc3cc(OCCN5CCOCC5)ccc34)cc2)no1 [AC886]
- Interindividual variability of systemic clearance ([3]; abstract statement for both moieties): approximately 70 % coefficient of variation
